For assay [1] the following is noted: literature values quoted for comparison; cited from earlier work.
Assay [2] in a line: HA binding assay (pulldown of fluorescein-labeled peptides, Langmuir isotherm fit). As to conditions: fit of Langmuir equation. Here is the method: Fluorescein-labeled DSS-containing peptides of various lengths were subjected to pulldown assays as follows: Samples containing varying concentrations of fluorescein-labeled peptide (0-100 μM) and a fixed amount (0.3 mg) of HA nanocrystals with a specific surface area of 100 m^2/g (Berkeley Advanced Biomaterials, Berkeley, Calif.) were prepared. Measurements were taken of the absorbance of the labeled peptide at 488 nm (the peak absorbance of the fluorescein label) before and after exposure to the HA. The amount of peptide bound was calculated by comparing the ratio of the final (Af) and initial (Ai) absorbances to the initial concentration (C0) [Cbound=(Af/Ai)C0]. Plots were generated of the amount of peptide bound per meter squared of HA surface area vs. concentration of unbound peptide at equilibrium. The resulting isotherms were fit to the Langmuir isotherm, x/m=(KANmaxCeq)/(1+KACeq), where x/m represents the molar amount of peptide bound per unit of HA surface area, KA is the affinity constant of the peptide for the HA surface (L/Mol), Nmax is the maximum surface concentration (mol/m^2), and Ceq is the molar concentration of unbound peptide at equilibrium (Calis et al. (1995) Pharm Res., 12: 1072-1076).
In order to quantitatively assess the strength of the DSS-HA interaction as well as to determine the roles of peptide length and sequence on binding, fluorescein-labeled, DSS-containing peptides of various lengths were subjected to pulldown assays as described in “Materials and Methods.”
The experimental data were fit to the Langmuir isotherm, which describes the binding of molecules to surfaces with the conditions that (1) all binding sites have the same affinity for the peptide and (2) the peptide will form a monolayer on the surface but cannot accumulate to higher levels (Atkins (1994) Physical chemistry. Freeman, New York). The excellent fit of the Langmuir isotherm to the experimental data validates these conditions, and the constants obtained from this analysis were used for comparisons between peptides. As shown in FIG. 7A and summarized in Table 6, both the binding affinity (KA) and the monolayer concentration (NMax) of the various peptides increased with the number of DSS repeats per peptide. Additionally, several variant peptides were tested (FIGS. 7B, 7C, Table 6): a peptide containing a longer side chain at the first position (4ESS (SEQ ID NO:34)), peptides containing a more sterically hindered hydroxyl group at the second and third positions (4DTT (SEQ ID NO:36), 4NTT (SEQ ID NO:38), 4ETT (SEQ ID NO:37)), peptides lacking a charged group at the first position (4NSS (SEQ ID NO:35), 8ASS (SEQ ID NO:26)), and peptides lacking hydroxyl groups at the second and third positions (DAA-8 (SEQ ID NO:40), 8NAA (SEQ ID NO:41)).

Assay [3] can be described thus: Tissue specific binding of labeled peptides to sections of human teeth (CLSM). The following applies: 5(6)-carboxyfluorescein-labeled peptide, ten minutes. From the text: In order to investigate the tissue specificity of DSS peptide binding to tooth tissue, sections of human teeth were exposed to DSS peptides and variants, then imaged by CLSM. The peptides utilized for these experiments were 8DSS (SEQ ID NO:33), 8ASS (SEQ ID NO:26), 8DAA (SEQ ID NO:40), 8NAA (SEQ ID NO:41), 4DSS (SEQ ID NO:31), 4ESS (SEQ ID NO:34), 4NSS (SEQ ID NO:35), 4DTT (SEQ ID NO:36), 4ETT (SEQ ID NO:37), 4NTT (SEQ ID NO:38), and 6DSS (SEQ ID NO:32). Sagittal sections of human teeth extracted during normal clinical practice were polished and then incubated for ten minutes in a solution of the appropriate 5(6) carboxyfluorescein-labeled peptide (12.5pM) containing 10 mM NaCl and 50 mM HEPES, pH 7.0. Control samples were prepared without peptide. Samples were washed extensively after treatment and imaged by CLSM using blue laser illumination (A=488 nm) and a FITC emission filter, with identical camera and microscope settings for each sample. For each section, multiple scans were collected and assembled in an automated mode to generate panels of images representing an area of 13×13 mm, sufficient in most cases to encompass the whole section. […] Significant binding was also seen to the edges of the pulp cavity.

The nature of assay [4]: Binding of labeled peptides to carious lesions in teeth (CLSM). Details: species or system human. The following applies: labeled peptide, settings optimized per sample. The source says: Sections of human teeth containing obvious carious lesions, which consist of demineralized enamel, were polished and exposed to 5(6)-carboxyfluorescein-labeled DSS peptides and variants. The sections were washed extensively and imaged by CLSM using blue laser illumination (A=488 nm) and a FITC emission filter, with microscope and camera settings adjusted for each sample to optimize the signal detected from each peptide. The images were examined to identify the relative levels of peptide binding in healthy versus carious tissue. […] Given their ability to remineralize at sites of enamel degradation, they can also be used to initiate remineralization at sites of enamel degradation such as caries or injury sites without causing inappropriate nucleation on healthy tissue surfaces.

Assay [5] has as its system mineralizing mouse bone marrow nodules. Kind of assay: Binding to mineralizing mouse bone marrow cultures (fluorescence microscopy). As to conditions: labeled peptide, continuous treatment for 3 weeks. The class given is cell-based. Here is the method:
Mouse bone marrow cultures were grown to confluence in DMEM+10% FBS and then treated continuously for 3 weeks with either 2.5 p.M 5(6)-carboxyfluorescein-labeled 6DSS (SEQ ID NO:32) or 2.5 p.M 5(6)-carboxyfluorescein-labeled peptide #3-1 (control peptide) in α-MEM+10% FBS+50 p.g/mL ascorbic acid 4 mM β-glycerophosphate. Cultures were imaged by fluorescence microscopy using a FITC excitation/emission filter set.
Having established that (DSS)n-containing peptides are able to actively bind HA, we sought to determine whether they would bind to emerging sites of mineralization in biologically derived tissue. Mouse bone marrow (MBM) cultures, cultured under osteogenic conditions, were treated continuously for 3 weeks with either labeled 6DSS (SEQ ID NO:32) peptide or labeled peptide #3-1 (non-calcium-binding control peptide). Cultures were imaged by fluorescence microscopy using a FITC excitation/emission filter set.

Assay [6] is described as follows: Free peptide with CaCl2 and NaHPO4: formation of HA crystals in solution. The following applies: 25 μM free peptide.
A short description of assay [7]: Binding of labeled peptide to sagittally sectioned adult human molars (CLSM, Example 6). The following applies: fluorescein-labeled peptide, 10 min. How it is done:
For binding experiments, sagittally sectioned adult human molars were incubated for 10 min in a solution of 12.5 p.M 5(6)-carboxyfluorescein-labeled 6DSS (SEQ ID NO:32) peptide containing 10 mM NaCl and 50 mM HEPES, pH 7.0. Control samples were prepared without peptide. Samples were rinsed after treatment and imaged by confocal laser scanning microscopy (CLSM) with illumination by a blue Kr/Ar laser (λ=488 nm) and a FITC emission filter. To test binding of DSS-containing peptides to biological tissue, sagittally sectioned human teeth were incubated treated with 6DSS (SEQ ID NO:32) (control samples were prepared without peptide), washed, and imaged by CLSM.

Assay [8] concerns Streptococcus mutans strain UA159. The class given is cell-based. How it is done: The sequences of these fusion proteins are […] NO:24), and […] NO:25) (see SEQ ID NOs:27-29, respectively in WO 2007/038683). The antimicrobial activity of these peptides against anaerobic planktonic bacteria was determined by a modification of a previously described assay. Briefly, Streptococcus mutans strain UA159 cells were diluted to -1×10^5 cfu/mL in Todd-Hewitt (TH) broth medium and mixed with either suspended hydroxyapatite nanocrystals (Berkeley Advanced Biomaterials, Inc., 0.03% w/v) or, for control samples, an equivalent volume of deionized water. Aliquots were transferred into 96-well plates (Fisher). Serial dilutions of the peptides were then made and added to the bacteria. […] Nonetheless, some antimicrobial activity is retained by this peptide.

Where two headings read alike, the source gives them in different places. Ends that are not written are not given here.

As for `N[C@@H](CC(=O)O)C(=O)O` [Asp, aspartic acid], the HA binding affinity in assay [1] is 220 M⁻¹.
As for `N[C@@H](CCC(=O)O)C(=O)O` [glutamic acid], in assay [1], the HA binding affinity is 206 M⁻¹.
With `N[C@@H](COP(=O)(O)O)C(=O)O` [phosphoserine], in assay [1], the HA binding affinity is listed as 5,000-13,200 M^−1.
With `N[C@@H](CO)C(=O)O` [serine], the HA binding affinity in assay [1] was 317,000 M^−1.
For “DSS DSS DSS DSS DSS DSS (DSSDSSDSSDSSDSSDSS; synthetic calcium-binding peptide 6DSS)”, the “Nmax (maximum monolayer surface concentration)” value in assay [2] was 1.3 × 10^−7 ± 3 × 10^−9 mol/m^2. Further, the “KA (binding affinity for HA)” value in assay [2] (fluorescein-labeled peptide 0-100 μM, 0.3 mg HA nanocrystals) is reported as 272,000 ± 26,000 M^−1. In addition, the “tissue pattern of binding in the tooth section” value in assay [3] is “bound primarily to the mantle dentin”. Moreover, the “level of binding (staining) to tooth surfaces” value in assay [3] (identical settings) is listed as “the greatest levels of staining”. In assay [4], the “specificity of binding to carious lesions versus healthy enamel” value is reported as “highly specific binding to carious lesions” and the “strength of staining of carious lesions” value is reported as “exceptionally strong staining of carious lesions”. Moreover, the “staining of mineralizing MBM nodules” value in assay [5] was “bright staining of the mineralizing MBM nodules”. Also, the “enhancement of HA crystal formation by free peptide at subcritical CaHPO4 concentrations” value in assay [6] is on record as “this was not observed”. In assay [7], the binding to dentin result is recorded as “intense fluorescent staining” and the binding to enamel result is on record as “no binding to the enamel was seen”.
Consider “DSSDSSDSSDSSGGGRWRWRWF [4DSS-2c4, DSS DSS DSS DSS GGG RWRWRWF]”, for which the MIC entry in assay [8] (planktonic S. mutans, with 0.03% (w/v) hydroxyapatite, approximately 24 hours) is “unaffected”; in assay [8] (strain UA159, 24 h) it was 52.5.
For the compound “FHFHLHF [PL-135, FHFHLHF, reference compound]”, in assay [8] (strain UA159, 24 h), the MIC stood at 21.
Consider LIKHILHRL [#3-1, reference compound], for which the “staining of mineralizing MBM nodules” value in assay [5] is “no binding seen”.
As for “LKRFLKWFKRF [b-34, LKRF LKWF KRF, reference compound]”, the MIC in assay [8] (strain UA159, 24 h) is listed as 5.6.
“RWRWRWF [2c-4, RWRWRWF, reference compound]”: in assay [8] (strain UA159, 24 h), the MIC came out at 2.
